pIC50: −log10 of the molar value.
Columns and labels:
[1] = target: T1, interleukin-1β converting enzyme (ICE) (Homo sapiens, UniProt P29466); test: ICE activity by the procedure of Thornberry et al. (1992); type: biochemical
T1 sequence (P29466 120-297 limits assumed): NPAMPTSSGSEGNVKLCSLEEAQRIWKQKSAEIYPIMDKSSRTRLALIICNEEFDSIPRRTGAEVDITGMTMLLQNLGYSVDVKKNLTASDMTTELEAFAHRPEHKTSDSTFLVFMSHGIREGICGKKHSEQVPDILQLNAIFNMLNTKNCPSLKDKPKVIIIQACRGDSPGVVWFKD
T1 sequence (P29466 317-404 limits assumed): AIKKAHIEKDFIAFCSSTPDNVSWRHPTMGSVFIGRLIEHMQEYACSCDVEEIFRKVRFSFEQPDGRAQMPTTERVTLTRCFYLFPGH
Protocol: Assay for assessing the ICE activity of compound of Formula I
Gamma-pyrone-3-acetic acid was assessed for ICE activity by the procedure of Thomberry, et al (1992) Nature Vol. 356 pp 768-774.

[2] = Solubility of isolated material; type: physicochemical
Protocol: Compound was isolated further by purification using HPLC. Two mL of filtered solution was passed through a C4 radial compression column (25×100 mm, WATERS ASSOCIATES) and an isocratic flow rate of 10 mL per minute of water was used to elute the active compound. A total of 5 runs were performed with fractions being collected at one minute intervals. The fractions were tested for ICE-activity. The active fractions eluted between 9-10 minutes. The ICE-active-rich cuts from each run were pooled and lyophilized. The resulting material appeared to be an oily brown substance that was soluble in water, methanol, and DMSO. Estimates of 7 mg of compound can be isolated from 300 ml of whole broth.

Question: With `O=C(O)Cc1coccc1=O` [Gamma-pyrone-3-acetic acid, gamma-pyrone-3-acetic acid] as the molecule, how does the pIC50 ([1]; pH 6.5 and 1 mM DDT) read?
Answer: 5.89

Question: What about the pIC50 ([1]; pH 7:5 and 1 mM DDT) of the same molecule?
Answer: 5.34

Question: And the “solubility in DMSO” value ([2]; DMSO)?
Answer: soluble

Question: What about the solubility in methanol ([2]; methanol) of the same molecule?
Answer: soluble

Question: And the solubility in water ([2]; water)?
Answer: soluble

Reference: patent US5411985A, “Gamma-pyrone-3-acetic acid as an inhibitor or interleukin-1 β inventory enzyme” (Merck & Co., Inc., priority 1993, dated 1995)
